According to article PMC12339378 (Molecular Psychiatry, 2025):

Experiments:
[1] = tested on: HCN channel Ih currents in VTA DA neurons; format: cell-based, mice
VTA DA neurons = format: cell-based, mice; conditions: 750 µM local application for 3 min; cell-attached; average
[2] = cited from earlier work

Structure (SMILES)	percent inhibition of Ih currents in VTA DA neurons [1]	percent inhibition of firing rate in VTA DA neurons (VTA DA neurons) [%]	ability to cross the blood-brain barrier (BBB) [2]
COc1cc2c(cc1OC)CC(=O)N(CCCN(C)C[C@H]1Cc3cc(OC)c(OC)cc31)CC2 [Ivabradine]	significant inhibition of the Ih current	61.1	limited abilities to cross the blood-brain barrier
COc1ccc(CCN(C)CCCN2CCc3cc(OC)c(OC)cc3CC2=O)cc1OC [Zatebradine]	significant inhibition of the Ih current	59.7	–
COc1cc2c(cc1OC)CC(=O)N(C[C@H]1CCCN(CCOc3ccccc3)C1)CC2 [compound 3]	less efficacious than Cilobradine	–	–
COc1cc2c(cc1OC)CC(=O)N(C[C@H]1CCCN(CCOc3ccccc3F)C1)CC2 [compound 4]	less efficacious than Cilobradine	–	–
COc1ccc(CCN2CCO[C@H](CN3CCc4cc(OC)c(OC)cc4CC3=O)C2)cc1OC [compound 6]	less efficacious than Cilobradine	–	–
COc1ccc(C(F)(F)CN(C)CCCN2CCc3cc(OC)c(OC)cc3CC2=O)cc1OC [compound 8]	no efficacy	–	–
COc1cc2c(cc1OC)CC(=O)N(C[C@H]1CCCN(C(=O)OC(C)(C)C)C1)CC2 [compound 11]	less than half the efficacy of Cilobradine	–	–
